Results as given in patent publication US8410161B2, “Thioxanthone ring system derivatives” (National Defense Medical Center, priority 2010, dated 2013).

Legend:
ACHN = experiment: NCI in vitro DTP human cell line screen, ACHN; format: cell-based; conditions: Renal Cancer, 1.00E−5 Molar
Protocol: (§1) Then, a cell toxicity assay of the cancer lines made by National Cancer Institute will be discussed as follows. The cell toxicity assay is performed by choosing ten compounds (existing certification numbers) from the 59 compounds disclosed in the present invention first.

OVCAR-3 = experiment: NCI in vitro DTP human cell line screen, OVCAR-3; format: cell-based; conditions: Ovarian Cancer, 1.00E−5 Molar
Protocol: as §1

DU145 = experiment: NCI in vitro DTP human cell line screen, DU145; format: cell-based; conditions: Prostate Cancer, 1.00E−5 Molar
Protocol: as §1

UACC-257 = experiment: NCI in vitro DTP human cell line screen, UACC-257; format: cell-based; conditions: Melanoma, 1.00E−5 Molar
Protocol: as §1

OVCAR-5 = experiment: NCI in vitro DTP human cell line screen, OVCAR-5; format: cell-based; conditions: Ovarian Cancer, 1.00E−5 Molar
Protocol: as §1

SNB-75 = experiment: NCI in vitro DTP human cell line screen, SNB-75; format: cell-based; conditions: CNS Cancer, 1.00E−5 Molar
Protocol: as §1

NCI/ADR-RES = experiment: NCI in vitro DTP human cell line screen, NCI/ADR-RES; format: cell-based; conditions: Ovarian Cancer, 1.00E−5 Molar
Protocol: as §1

MDA-MB-468 = experiment: NCI in vitro DTP human cell line screen, MDA-MB-468; format: cell-based; conditions: Breast Cancer, 1.00E−5 Molar
Protocol: as §1

786-0 = experiment: NCI in vitro DTP human cell line screen, 786-0; format: cell-based; conditions: Renal Cancer, 1.00E−5 Molar
Protocol: as §1

SK-MEL-2 = experiment: NCI in vitro DTP human cell line screen, SK-MEL-2; format: cell-based; conditions: Melanoma, 1.00E−5 Molar
Protocol: as §1

HS 578-T = experiment: NCI in vitro DTP human cell line screen, HS 578-T; format: cell-based; conditions: Breast Cancer, 1.00E−5 Molar
Protocol: as §1

MCF7 = experiment: NCI in vitro DTP human cell line screen, MCF7; format: cell-based; conditions: Breast Cancer, 1.00E−5 Molar
Protocol: as §1

IGROV1 = experiment: NCI in vitro DTP human cell line screen, IGROV1; format: cell-based; conditions: Ovarian Cancer, 1.00E−5 Molar
Protocol: as §1

A3 cell lines = experiment: MTT assay, A3 cell lines (lung cancer stem cell); format: cell-based
Excerpt: Please to FIG. 4B, various cell viabilities of the A3 cell lines can be obtained through the MTT assay and illustrated in FIG. 4B while the compounds No. 1˜30 are used to treat A3 cell lines, wherein A3 cell lines are lung cancer stem cell.

HCT-116 = experiment: NCI in vitro DTP human cell line screen, HCT-116; format: cell-based; conditions: Colon Cancer, 1.00E−5 Molar
Protocol: as §1

HL-60(TB) = experiment: NCI in vitro DTP human cell line screen, HL-60(TB); format: cell-based; conditions: Leukemia, 1.00E−5 Molar
Protocol: as §1

MOLT-4 = experiment: NCI in vitro DTP human cell line screen, MOLT-4; format: cell-based; conditions: Leukemia, 1.00E−5 Molar
Protocol: as §1

SW-620 = experiment: NCI in vitro DTP human cell line screen, SW-620; format: cell-based; conditions: Colon Cancer, 1.00E−5 Molar
Protocol: as §1

NCI-H322M = experiment: NCI in vitro DTP human cell line screen, NCI-H322M; format: cell-based; conditions: Non-Small Cell Lung Cancer, 1.00E−5 Molar
Protocol: as §1

A control cell lines = experiment: MTT assay, A control cell lines (lung cancer cell); format: cell-based
Excerpt: Please refer to Table 1 and FIGS. 4A-4C. According to a MTT assay (Table 1), various cell viabilities of the A control cell lines can be obtained and illustrated in FIG. 4A while the compounds No. 2˜30 are used to treat A control cell lines, wherein A control cell lines are lung cancer cell.

OVCAR-4 = experiment: NCI in vitro DTP human cell line screen, OVCAR-4; format: cell-based; conditions: Ovarian Cancer, 1.00E−5 Molar
Protocol: as §1

60 cancer lines = experiment: NCI cell toxicity assay of 60 cancer lines, whole panel summary; format: cell-based, human; conditions: mean over all cell lines; 1.00E−5 Molar
Protocol: as §1

SK-MEL-28 = experiment: NCI in vitro DTP human cell line screen, SK-MEL-28; format: cell-based; conditions: Melanoma, 1.00E−5 Molar
Protocol: as §1

SF-539 = experiment: NCI in vitro DTP human cell line screen, SF-539; format: cell-based; conditions: CNS Cancer, 1.00E−5 Molar
Protocol: as §1

RXF 393 = experiment: NCI in vitro DTP human cell line screen, RXF 393; format: cell-based; conditions: Renal Cancer, 1.00E−5 Molar
Protocol: as §1

SK-MEL-5 = experiment: NCI in vitro DTP human cell line screen, SK-MEL-5; format: cell-based; conditions: Melanoma, 1.00E−5 Molar
Protocol: as §1

UACC-62 = experiment: NCI in vitro DTP human cell line screen, UACC-62; format: cell-based; conditions: Melanoma, 1.00E−5 Molar
Protocol: as §1

SR = experiment: NCI in vitro DTP human cell line screen, SR; format: cell-based; conditions: Leukemia, 1.00E−5 Molar
Protocol: as §1

[1] = MTT assay, HEL299 fibroblast; format: cell-based; conditions: human
Excerpt: Please refer to FIG. 4C, various cell viabilities of the HEL299 cell lines can be obtained through the MTT assay while the compounds No. 1˜30 are used to treat HEL299 cell lines, wherein HEL299 cell lines are fibroblast.

SF-295 = experiment: NCI in vitro DTP human cell line screen, SF-295; format: cell-based; conditions: CNS Cancer, 1.00E−5 Molar
Protocol: as §1

LOX IMVI = experiment: NCI in vitro DTP human cell line screen, LOX IMVI; format: cell-based; conditions: Melanoma, 1.00E−5 Molar
Protocol: as §1

HCC-2998 = experiment: NCI in vitro DTP human cell line screen, HCC-2998; format: cell-based; conditions: Colon Cancer, 1.00E−5 Molar
Protocol: as §1

SF-268 = experiment: NCI in vitro DTP human cell line screen, SF-268; format: cell-based; conditions: CNS Cancer, 1.00E−5 Molar
Protocol: as §1

BT-549 = experiment: NCI in vitro DTP human cell line screen, BT-549; format: cell-based; conditions: Breast Cancer, 1.00E−5 Molar
Protocol: as §1

MDA-MB-231/ATCC = experiment: NCI in vitro DTP human cell line screen, MDA-MB-231/ATCC; format: cell-based; conditions: Breast Cancer, 1.00E−5 Molar
Protocol: as §1

M14 = experiment: NCI in vitro DTP human cell line screen, M14; format: cell-based; conditions: Melanoma, 1.00E−5 Molar
Protocol: as §1

NCI-H460 = experiment: NCI in vitro DTP human cell line screen, NCI-H460; format: cell-based; conditions: Non-Small Cell Lung Cancer, 1.00E−5 Molar
Protocol: as §1

MDA-MB-435 = experiment: NCI in vitro DTP human cell line screen, MDA-MB-435; format: cell-based; conditions: Melanoma, 1.00E−5 Molar
Protocol: as §1

UO-31 = experiment: NCI in vitro DTP human cell line screen, UO-31; format: cell-based; conditions: Renal Cancer, 1.00E−5 Molar
Protocol: as §1

U251 = experiment: NCI in vitro DTP human cell line screen, U251; format: cell-based; conditions: CNS Cancer, 1.00E−5 Molar
Protocol: as §1

SK-OV-3 = experiment: NCI in vitro DTP human cell line screen, SK-OV-3; format: cell-based; conditions: Ovarian Cancer, 1.00E−5 Molar
Protocol: as §1

TK-10 = experiment: NCI in vitro DTP human cell line screen, TK-10; format: cell-based; conditions: Renal Cancer, 1.00E−5 Molar
Protocol: as §1

EKVX = experiment: NCI in vitro DTP human cell line screen, EKVX; format: cell-based; conditions: Non-Small Cell Lung Cancer, 1.00E−5 Molar
Protocol: as §1

NCI-H522 = experiment: NCI in vitro DTP human cell line screen, NCI-H522; format: cell-based; conditions: Non-Small Cell Lung Cancer, 1.00E−5 Molar
Protocol: as §1

HT29 = experiment: NCI in vitro DTP human cell line screen, HT29; format: cell-based; conditions: Colon Cancer, 1.00E−5 Molar
Protocol: as §1

COLO 205 = experiment: NCI in vitro DTP human cell line screen, COLO 205; format: cell-based; conditions: Colon Cancer, 1.00E−5 Molar
Protocol: as §1

SN12C = experiment: NCI in vitro DTP human cell line screen, SN12C; format: cell-based; conditions: Renal Cancer, 1.00E−5 Molar
Protocol: as §1

PC-3 = experiment: NCI in vitro DTP human cell line screen, PC-3; format: cell-based; conditions: Prostate Cancer, 1.00E−5 Molar
Protocol: as §1

OVCAR-8 = experiment: NCI in vitro DTP human cell line screen, OVCAR-8; format: cell-based; conditions: Ovarian Cancer, 1.00E−5 Molar
Protocol: as §1

T-47D = experiment: NCI in vitro DTP human cell line screen, T-47D; format: cell-based; conditions: Breast Cancer, 1.00E−5 Molar
Protocol: as §1

KM12 = experiment: NCI in vitro DTP human cell line screen, KM12; format: cell-based; conditions: Colon Cancer, 1.00E−5 Molar
Protocol: as §1

HCT-15 = experiment: NCI in vitro DTP human cell line screen, HCT-15; format: cell-based; conditions: Colon Cancer, 1.00E−5 Molar
Protocol: as §1

CAKI-1 = experiment: NCI in vitro DTP human cell line screen, CAKI-1; format: cell-based; conditions: Renal Cancer, 1.00E−5 Molar
Protocol: as §1

NCI-H226 = experiment: NCI in vitro DTP human cell line screen, NCI-H226; format: cell-based; conditions: Non-Small Cell Lung Cancer, 1.00E−5 Molar
Protocol: as §1

SNB-19 = experiment: NCI in vitro DTP human cell line screen, SNB-19; format: cell-based; conditions: CNS Cancer, 1.00E−5 Molar
Protocol: as §1

RPMI-8226 = experiment: NCI in vitro DTP human cell line screen, RPMI-8226; format: cell-based; conditions: Leukemia, 1.00E−5 Molar
Protocol: as §1

MALME-3M = experiment: NCI in vitro DTP human cell line screen, MALME-3M; format: cell-based; conditions: Melanoma, 1.00E−5 Molar
Protocol: as §1

K562 = experiment: NCI in vitro DTP human cell line screen, K562; format: cell-based; conditions: Leukemia, 1.00E−5 Molar
Protocol: as §1

NCI-H23 = experiment: NCI in vitro DTP human cell line screen, NCI-H23; format: cell-based; conditions: Non-Small Cell Lung Cancer, 1.00E−5 Molar
Protocol: as §1

## Cc1cc(C)cc(Sc2ccc3c(=O)c4ccccc4sc3c2Cl)c1 [No. 14, 4-Chloro-3-(3,5-dimethylphenylthio)-9H-thioxanthen-9-one]
ACHN
  Growth Percent: 98.35%
OVCAR-3
  Growth Percent: 121.13%
DU145
  Growth Percent: 118.42%
UACC-257
  Growth Percent: 89.26%
OVCAR-5
  Growth Percent: 98.39%
SNB-75
  Growth Percent: 84.85%
NCI/ADR-RES
  Growth Percent: 101.13%
MDA-MB-468
  Growth Percent: 110.63%
786-0
  Growth Percent: 110.62%
SK-MEL-2
  Growth Percent: 100.30%
HS 578-T
  Growth Percent: 103.67%
MCF7
  Growth Percent: 94.94%
IGROV1
  Growth Percent: 100.06%
A3 cell lines
  cell viabilities of A3 cell lines (MTT assay): 113 ± 0.50%
HCT-116
  Growth Percent: 93.28%
HL-60(TB)
  Growth Percent: 99.82%
MOLT-4
  Growth Percent: 99.59%
SW-620
  Growth Percent: 104.39%
NCI-H322M
  Growth Percent: 116.93%
A control cell lines
  cell viabilities of A control cell lines (MTT assay): 112 ± 8.03%
OVCAR-4
  Growth Percent: 101.64%
60 cancer lines
  Growth Percent, Mean: 101.73%
SK-MEL-28
  Growth Percent: 117.96%
SF-539
  Growth Percent: 105.19%
RXF 393
  Growth Percent: 114.27%
SK-MEL-5
  Growth Percent: 104.23%
UACC-62
  Growth Percent: 96.19%
SR
  Growth Percent: 86.99%
[1]
  viability: 104 ± 9.21%
SF-295
  Growth Percent: 116.45%
LOX IMVI
  Growth Percent: 96.06%
HCC-2998
  Growth Percent: 101.80%
SF-268
  Growth Percent: 104.92%
BT-549
  Growth Percent: 105.50%
MDA-MB-231/ATCC
  Growth Percent: 106.25%
M14
  Growth Percent: 107.60%
NCI-H460
  Growth Percent: 105.72%
MDA-MB-435
  Growth Percent: 99.38%
UO-31
  Growth Percent: 87.22%
U251
  Growth Percent: 95.50%
SK-OV-3
  Growth Percent: 103.14%
TK-10
  Growth Percent: 103.30%
EKVX
  Growth Percent: 96.66%
NCI-H522
  Growth Percent: 91.47%
HT29
  Growth Percent: 95.28%
COLO 205
  Growth Percent: 108.10%
SN12C
  Growth Percent: 101.79%
PC-3
  Growth Percent: 97.92%
OVCAR-8
  Growth Percent: 97.95%
T-47D
  Growth Percent: 100.87%
KM12
  Growth Percent: 109.61%
HCT-15
  Growth Percent: 97.09%
CAKI-1
  Growth Percent: 90.10%
NCI-H226
  Growth Percent: 97.38%
SNB-19
  Growth Percent: 108.53%
RPMI-8226
  Growth Percent: 101.54%
MALME-3M
  Growth Percent: 102.39%
K562
  Growth Percent: 100.94%
NCI-H23
  Growth Percent: 92.54%
